Test results as given in patent US8067620B2, “Dispiro 1,2,4-trioxolane antimalarials” (Medicines for Malaria Venture MMV, priority 2005, dated 2011).

Legend:
[1] = system: ANKA strain of P. berghei; assay: Single dose in vivo screen in P. berghei-infected NMRI mice; conditions: for Survival (days) 30 mg/kg SSV po / Activity (%) 30 mg/kg SSV po: single 30 mg/kg po dose in SSV one day post-infection; for Activity (%) 30 mg/kg SSV po: percent reduction in parasitemia on day three post-infection; for Cures 30 mg/kg SSV po: single 30 mg/kg po dose in SSV, cure = survival to day 30 post-infection, groups of five mice
Method: Activity of 1,2,4-trioxolanes against P. berghei in vivo. In the single dose in vivo screen, NMRI mice infected with the ANKA strain of P. berghei (groups of five mice) were treated one day post-infection with trioxolanes dissolved or suspended in standard suspending vehicle (SSV). The SSV consists of either 0.5% w/v carboxymethyl cellulose, 0.5% v/v benzyl alcohol, 0.4% v/v Tween 80, and 0.9% w/v sodium chloride in water or 0.5% hydroxypropylmethylcellulose 0.4% v/s Tween 80, and 0.5% v/v benzyl alcohol in water. […] Antimalarial activity was measured by percent reduction in parasitemia on day three post-infection and survival times compared to an untreated control group. Survival to day 30 post-infection is considered to be a cure in this model.

P. berghei = assay: Prophylactic activity against P. berghei in vivo (mice dosed before infection); conditions: for Cures 24 h prior to infection (30 mg/kg) / Activity (%) 24 h prior to infection (30 mg/kg): single 30 mg/kg oral dose 24 h prior to infection; for Cures 24 h prior to infection (30 mg/kg) / Cures 48 h prior to infection (100 mg/kg) / Cures 72 h prior to infection (100 mg/kg) / Cures 96 h prior to infection (100 mg/kg): n=5 mice; for Activity (%) 24 h prior to infection (30 mg/kg) / Activity (%) 48 h prior to infection (100 mg/kg): parasitemia day 3 post-infection; for Cures 48 h prior to infection (100 mg/kg) / Activity (%) 48 h prior to infection (100 mg/kg): single 100 mg/kg oral dose 48 h prior to infection; for Activity (%) 72 h prior to infection (100 mg/kg) / Cures 72 h prior to infection (100 mg/kg): single 100 mg/kg oral dose 72 h prior to infection; for Activity (%) 96 h prior to infection (100 mg/kg) / Cures 96 h prior to infection (100 mg/kg): single 100 mg/kg oral dose 96 h prior to infection
Method: All groups (n=5 mice per group) including an untreated control group, were infected at the same time and parasitemia was determined for each animal on day 3 post-infection and compared with the level of parasitemia in control animals.

[2] = Blood stability studies in freshly collected rat blood; type: in vitro ADME; parameters: unit not given here
Method: Blood stability studies: Compounds were incubated at 37° C. in freshly collected rat blood. At selected time points, duplicate aliquots of the whole blood were sampled, centrifuged and the plasma assayed for parent compound by LC-MS.

[3] = Pharmacokinetic studies in rats (oral); type: in vivo, rat; conditions: oral 10 mg/kg; for Oral Bioavailability at 10 mg/kg (%): relative to an IV dose
Method: Pharmacokinetic studies in rats: Compounds were administered orally to rats (n=2) at a dose of 10 mg/kg in a suspension formulation containing hydroxypropylmethyl cellulose, Tween 80, benzyl alcohol, and water. […] Oral bioavailability for each compound was calculated relative to an IV dose for each compound in a suitable vehicle.

[4] = system: Embryonic red blood cells (RBCs); assay: Rat whole embryo culture (WEC) model, embryotoxicity
Text: Embryonic red blood cells (RBCs) were the primary target leading to anemia and subsequent hypoxia in embryonic tissues.
Longo, M.; Zanoncelli, S.; Manera, D.; Brughera, M.; Colombo, P.; Lansen J.; Mazué, G.; Gomes, M.; Taylor W. R. J.; Olliaro, P. Effects of the Antimalarial Drug Dihydroartemisinin (DHA) on Rat Embryos In Vitro. Repro. Tox. 2006, 21, 83-93.

| Structure (SMILES) | Survival (days) 30 mg/kg SSV po [1] | Activity (%) 30 mg/kg SSV po [1] | Cures 30 mg/kg SSV po [1] | Cures 24 h prior to infection (30 mg/kg) (P. berghei) | Activity (%) 24 h prior to infection (30 mg/kg) (P. berghei) | Cures 48 h prior to infection (100 mg/kg) (P. berghei) | Activity (%) 48 h prior to infection (100 mg/kg) (P. berghei) | Stability in Rat Blood (t1/2) at 37° C. [2] | In Vivo Oral t1/2 at 10 mg/kg [3] | Oral Bioavailability at 10 mg/kg (%) [3] | Activity (%) 72 h prior to infection (100 mg/kg) (P. berghei) | Cures 72 h prior to infection (100 mg/kg) (P. berghei) | Activity (%) 96 h prior to infection (100 mg/kg) (P. berghei) | Cures 96 h prior to infection (100 mg/kg) (P. berghei) | NOAEL for embryonic RBCs [4] |
| --- | --- | --- | --- | --- | --- | --- | --- | --- | --- | --- | --- | --- | --- | --- | --- |
| C[C@H]1[C@H](OC(=O)CCC(=O)O)O[C@@H]2O[C@@]3(C)CC[C@H]4[C@H](C)CC[C@@H]1[C@@]24OO3 [AS, artesunate, reference compound] | 9.0 days | 92% | 0/5 | 0/5 | 21% | 0/5 | 0% |  |  |  |  |  |  |  |  |
| NC[C@H]1CC[C@]2(CC1)OOC1(O2)C2CC3CC(C2)CC1C3 (some centres unmarked) [OZ209, reference compound] |  |  |  |  |  |  |  | 0.8 | 1.2 h | 12% |  |  |  |  |  |
| NCCOc1ccc([C@H]2CC[C@]3(CC2)OO[C@]2(O3)C3CC4CC(C3)CC2C4)cc1 [OZ323, reference compound] |  |  |  | 0/5 | 99.7% | 5/5 | 99.5% | 7.7 | 5.2 h | 100% | >99.9% | 1/5 | 90% | 0/5 |  |
| CS(=O)(=O)O.c1cc([C@H]2CC[C@]3(CC2)OOC2(O3)C3CC4CC(C3)CC2C4)ccc1OC1CCNCC1 (some centres unmarked) [OZ429] | 27.8 days | 99.97% | 4/5 | 2/5 | 99.8% | 5/5 | 99.8% | 5.5 | 5.3 h | 73% |  |  |  |  |  |
| CS(=O)(=O)O.c1cc(C2CCC3(CC2)OOC2(O3)C3CC4CC(C3)CC2C4)ccc1OCCN1CCOCC1 (centres unmarked) [OZ439] |  |  |  | 5/5 | 99.8% | 5/5 | 99.6% |  |  | 94% | 99.6% | 5/5 | 99.5% | 5/5 | 5 µg/mL |
| CC(C)(CN)Oc1ccc(C2CCC3(CC2)OOC2(O3)C3CC4CC(C3)CC2C4)cc1.CS(=O)(=O)O (centres unmarked) [OZ453] |  |  |  | 0/5 | 99.9% | 5/5 | 99.7% | 6.1 |  |  |  |  |  |  |  |
| CS(=O)(=O)O.c1cc(C2CCC3(CC2)OOC2(O3)C3CC4CC(C3)CC2C4)ccc1OCCN1CCSCC1 (centres unmarked) [OZ460] | 25.0 days | 99% | 3/5 | 3/5 | 99.8% | 5/5 | 99.6% |  |  |  |  |  |  |  |  |
| CS(=O)(=O)O.c1cc([C@H]2CC[C@]3(CC2)OOC2(O3)C3CC4CC(C3)CC2C4)ccc1OCCCN1CCOCC1 (some centres unmarked) [OZ461] |  |  |  | 5/5 | 99.9% | 5/5 | 99.7% |  |  | 71% | 99.6% | 5/5 | 99.4% | 4/5 |  |
| CS(=O)(=O)N1CCN(CCCOc2ccc([C@H]3CC[C@]4(CC3)OOC3(O4)C4CC5CC(C4)CC3C5)cc2)CC1.Cc1ccc(S(=O)(=O)O)cc1 (some centres unmarked) [OZ482] |  |  |  | 3/5 | >99.9% | 5/5 | >99.9% | >17 | 9.6 h | 100% | 99.6% | 4/5 | 99.6% | 3/5 |  |
| CS(=O)(=O)N1CCN(CCOc2ccc([C@H]3CC[C@]4(CC3)OOC3(O4)C4CC5CC(C4)CC3C5)cc2)CC1.CS(=O)(=O)O (some centres unmarked) [OZ485] |  |  |  | 3/5 | >99.9% | 5/5 | >99.9% |  |  |  |  |  |  |  |  |
